Test results: ChEMBL document CHEMBL4428025 (J Med Chem, 2016)

Assays:
[1] = Oral bioavailability in cynomolgus monkey at 0.3 mg/kg; assay type: ADME, organism-based, Macaca fascicularis; conditions: in vivo
[2] = Oral bioavailability in Wistar rat at 0.3 mg/kg; assay type: ADME, organism-based; conditions: in vivo
[3] = Ratio of drug level in brain to plasma in CD rat at 10 to 70 mg/kg, po administered through gavage measured at 6 hrs; assay type: ADME, organism-based; conditions: read-out: BPR

SMILES | bioavailability [1] [%] | bioavailability [2] [%] | Kp at 6 h [3]
O=C1NCN(c2ccccc2)C12CCN([C@@H]1CC[C@H]3CCCc4cccc1c43)CC2 | 1 | 4 | –
NC(=O)C1(c2ccccc2)CC2CCC(C1)N2C(c1ccccc1Cl)c1ccccc1Cl (stereo not drawn) | – | – | 0.43 to 0.59
